According to US20120149654A1 (priority 2009, published 2012):

Tested on: ScGT1 cells
Settings: for cells remaining viable after treatment: mouse

| Substance | cell viability / cytotoxicity | cells remaining viable after treatment |
| --- | --- | --- |
| fulvic acids [FA] | remain viable | 94% |
| humic acids [HA] | remain viable | 96% |
